Common to all, as to format: ADME
The nature of data set [1]: Minimal lethal dose in mice causing gradual progressive onset of severe scratching of face and body, spasms, paralysis (30 min after injection), severe eye damage, and death occurring within 24 h; range: 0.38-0.77. Particulars: mouse, in vivo.
Data set [2] is described as follows: Minimal lethal dose in mice causing gradual progressive onset of severe scratching of face and body, spasms, paralysis, severe eye damage, and death; range: 1.5-3.1. The note with it: mouse, in vivo.
A short description of data set [3]: Minimal lethal dose in mice showing no adverse symptoms seen. The note with it: mouse, in vivo.
The nature of data set [4]: Minimal lethal dose in mice causing no scratching or eye damage, but frenetic jumping, severe spasms, and ultimately paralysis; if death did not occur within 30 min, total recovery was noted; range: 1.5-3.1. The note with it: mouse, in vivo, 0.5 h.
Data set [5] can be described thus: Minimal lethal dose in mice causing gradual progressive onset of severe scratching of face and body, spasms, paralysis, severe eye damage, and death; range: 0.2-0.4. The note with it: mouse, in vivo.

In turn, `CO[C@@H]1[C@H](O[C@@H]2[C@@H](OC)[C@H](O[C@H]3C[C@H]4CC(=O)[C@@]5(O)O[C@H](C[C@H]5C)C(C)(C)[C@@H](/C=C/C#C/C=C/C(C)C)OC(=O)C[C@H](O4)[C@@H]3C)OC[C@H]2OC)O[C@@H](C)[C@@H](O)[C@@H]1OC` showed an MLD in data set [1] of 0.38 mg/kg.

In data set [2], `CO[C@@H]1[C@H](O[C@@H]2[C@@H](OC)[C@H](O[C@H]3C[C@H]4CC(=O)[C@@]5(O)O[C@H](C[C@H]5C)C(C)(C)[C@@H](/C=C/C=C/C(C)C)OC(=O)C[C@H](O4)[C@@H]3C)OC[C@H]2OC)O[C@@H](C)[C@@H](O)[C@@H]1OC` gave an MLD of 3.1 mg/kg.

Consider `COC1C(O)C(C)OC(O[C@H]2C(OC)COC(O[C@H]3C[C@H]4CC(=O)[C@@]5(O)O[C@H](C[C@H]5C)C(C)(C)[C@@H](/C=C/c5ccccc5)OC(=O)C[C@H](O4)[C@@H]3C)[C@@H]2OC)[C@H]1OC` (stereo partly drawn), for which the MLD in data set [3] is above 13 mg/kg.

For `CC(C)/C=C/C=C/C=C/[C@H]1OC(=O)C[C@@H]2O[C@H](CC(=O)[C@@]3(O)O[C@H](C[C@H]3C)C1(C)C)C[C@H](O)[C@H]2C`, the MLD in data set [4] came out at 1.5 mg/kg.

As for `CO[C@@H]1[C@H](O[C@@H]2[C@@H](OC)[C@H](O[C@H]3C[C@H]4CC(=O)[C@@]5(O)O[C@H](C[C@H]5C)C(C)(C)[C@@H](/C=C/C=C/C5CCCCC5)OC(=O)C[C@H](O4)[C@@H]3C)OC[C@H]2OC)O[C@@H](C)[C@@H](O)[C@@H]1OC`, the MLD in data set [3] was above 13 mg/kg.

The molecule `C[C@H]1[C@@H]2CC(=O)O[C@H](/C=C/I)C(C)(C)[C@H]3C[C@@H](C)[C@](O)(O3)C(=O)C[C@H](C[C@@H]1O)O2` displayed an MLD in data set [3] above 13 mg/kg.

As for `CO[C@@H]1[C@H](O[C@@H]2[C@@H](OC)[C@H](O[C@H]3C[C@H]4CC(=O)[C@@]5(O)O[C@H](C[C@H]5C)C(C)(C)[C@@H](/C=C/C=C/C=C/C(C)C)OC(=O)C[C@H](O4)[C@@H]3C)OC[C@H]2OC)O[C@@H](C)[C@@H](O)[C@@H]1OC` [polycavemoside A], in data set [5], the MLD worked out at 0.2 mg/kg.

With `CO[C@@H]1[C@H](OC)[C@H](O[C@@H]2[C@@H](OC)[C@H](O[C@H]3C[C@H]4CC(=O)[C@@]5(O)O[C@H](C[C@H]5C)C(C)(C)[C@@H](/C=C/C=C/C(C)C)OC(=O)C[C@H](O4)[C@@H]3C)OC[C@H]2OC(C)=O)O[C@@H](C)[C@H]1OC` [polycavernoside B], the MLD in data set [5] is 0.2 mg/kg.

Values taken from ChEMBL document CHEMBL1131805, “Synthesis and biological evaluation of analogs of the marine toxin polycavernoside A” (Bioorg Med Chem Lett, 1999).
